According to ChEMBL document CHEMBL1212929, “Glucosylated deferiprone and its brain uptake: implications for developing glucosylated hydroxypyridinone analogues intended to cross the blood-brain barrier” (J Med Chem, 2010):

What was measured:
[1] = Biodistribution in Dunkin-Hartley guinea pig brain at 800 uM, iv after 20 mins using [3H]mannitol vascular space marker by scintillation counting; assay type: ADME, organism-based, Cavia porcellus; details: in vivo
[2] = Biodistribution in Dunkin-Hartley guinea pig brain parenchyma at 800 uM, iv after 20 mins using [3H]mannitol vascular space marker by scintillation counting; assay type: ADME, organism-based, Cavia porcellus; details: in vivo

Compound | Drug uptake [1] [mL/g] | Drug uptake [2] [mL/g]
Cc1c(O)c(=O)ccn1C [DEFERIPRONE] | 0.052 | 0.044
Cc1c(O[C@@H]2O[C@H](CO)[C@@H](O)[C@H](O)[C@H]2O)c(=O)ccn1C | < 0.001 | < 0.001
